Test results from publication PMC5692573 (Proceedings of the National Academy of Sciences of the …, 2017).

Key:
[1] = biological target: Kif18A (Homo sapiens, UniProt Q8NI77); experiment: cryo-EM reconstruction; format: binding
[2] = biological target: αβ-tubulin heterodimer (in paclitaxel-stabilized microtubules, or as curved tubulin in rings); experiment: cryo-EM 2D class averages

Molecule | cryo-EM reconstruction (~6 Å) of MT-bound Kif18A_MDNL with AMPPNP [1] | stoichiometry N [2]
Nc1ncnc2c1ncn2[C@@H]1O[C@H](CO[P@](=O)(O)O[P@](=O)(O)NP(=O)(O)O)[C@@H](O)[C@H]1O [AMPPNP] | In the presence of AMPPNP, the nucleotide-binding site is clearly occupied by the bound nucleotide | 
Kif18A_MDNL, monomeric human Kif18A motor-neck linker construct (domain or fragment) MSVTEEDLCHHMKVVVRVRPENTKEKAAGFHKVVHVVDKHILVFDPKQEEVSFFHGKKTTNQNVIKKQNKDLKFVFDAVFDETSTQSEVFEHTTKPILRSFLNGYNCTVLAYGATGAGKTHTMLGSADEPGVMYLTMLHLYKCMDEIKEEKICSTAVSYLEVYNEQIRDLLVNSGPLAVREDTQKGVVVHGLTLHQPKSSEEILHLLDNGNKNRTQHPTDMNATSSRSHAVFQIYLRQQDKTASINQNVRIAKMSLIDLAGSERASTSGAKGTRFVEGTNINRSLLALGNVINALADSKRKNQHIPYRNSKLTRLLKDSLGGNCQTIMIAAVSPSSVFYDDTYNTLKYANRAKDIKSSLKSNVLNVNNHITQYV |  | 1
